Values belong to the molecule of their own block, whether it stands above or below them.
Tests used:
Type in all cases: cell-based
ATB^0,+ in MCF7 cells = target: T1, ATB^0,+ in MCF7 cells (Homo sapiens, UniProt Q9UN76); assay: D-serine uptake in MCF7 cells (constitutively expressed ATB^0,+); details: MCF7 cells; for IC50: D-serine 5 μM, NaCl, read-out: IC50 for inhibition of D-serine uptake
T1 construct: host or cells: MCF7
T1 sequence (Q9UN76 1-642): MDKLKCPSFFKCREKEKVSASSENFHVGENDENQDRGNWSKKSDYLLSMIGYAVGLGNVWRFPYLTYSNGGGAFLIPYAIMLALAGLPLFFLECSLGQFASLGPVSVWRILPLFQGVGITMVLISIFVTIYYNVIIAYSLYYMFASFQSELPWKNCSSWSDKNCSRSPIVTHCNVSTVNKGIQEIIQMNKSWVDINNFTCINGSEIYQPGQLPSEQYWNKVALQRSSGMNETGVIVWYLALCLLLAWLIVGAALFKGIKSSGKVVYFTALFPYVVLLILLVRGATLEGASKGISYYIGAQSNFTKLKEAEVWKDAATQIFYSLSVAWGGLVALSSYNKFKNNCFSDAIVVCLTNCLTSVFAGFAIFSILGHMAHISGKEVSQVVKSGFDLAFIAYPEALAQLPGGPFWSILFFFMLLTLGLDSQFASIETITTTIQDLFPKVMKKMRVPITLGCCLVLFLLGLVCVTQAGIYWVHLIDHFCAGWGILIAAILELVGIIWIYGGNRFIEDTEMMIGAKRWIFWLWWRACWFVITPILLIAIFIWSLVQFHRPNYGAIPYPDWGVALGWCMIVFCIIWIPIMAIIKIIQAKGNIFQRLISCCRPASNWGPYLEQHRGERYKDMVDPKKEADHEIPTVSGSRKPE
Description: Cells were seeded and grown in 24-well culture plates to confluency and used for uptake measurements. Radiolabelled glycine or D-serine was used as the substrate to determine the transport function of ATB^0,+. Uptake measurements were routinely made in an NaCl-containing buffer (25 mM Hepes/Tris buffer, pH 7.4, 140 mM NaCl, 5.4 mM KCl, 1.8 mM CaCl2, 0.8 mM MgSO4 and 5 mM glucose). Ion dependence of the transport process was evaluated by studying the uptake activity in buffers of varying compositions. NaCl in the uptake buffer was replaced iso-osmotically with NMDG (N-methyl-D-glucamine) chloride to prepare an Na^+-free buffer, and with sodium gluconate to prepare a Cl^−-free buffer. Linear uptake rates were determined by employing a 10 min incubation period, based on time course experiments. Na^+-activation kinetics was analysed by studying the uptake rates in the presence of varying concentrations of Na^+ (2.5-140 mM) in the uptake buffer with Cl^− concentration kept constant at 140 mM. This was done by replacing NaCl with appropriate concentrations of NMDG. Cl^−-activation kinetics was analysed by studying the uptake rates in the presence of varying concentrations of Cl^− (2.5-100 mM) in the uptake buffer with Na^+ concentration kept constant at 140 mM. This was done by replacing NaCl with appropriate concentrations of sodium gluconate. Uptake data for Na^+- and Cl^−-activation kinetics were analysed using the Hill equation, and values for K0.5 for Na^+ and Cl^− and for the Hill coefficient (h) were determined by linear and non-linear regression methods. A commercially available software program (Sigma Plot, version 6.0; SPSS) was used for this purpose. Substrate specificity of the uptake process was evaluated by monitoring the effects of unlabelled amino acids (5 mM) on the uptake of radiolabelled glycine or D-serine (5 μM: radiolabelled substrate, 0.05 μM; unlabelled substrate, 4.95 μM).
The kinetic nature of inhibition of D-serine uptake by α-methyl-DL-tryptophan was investigated in MCF7 cells by monitoring the uptake at increasing concentrations of D-serine (range, 50-2000 μM) in the absence and presence of 100 μM α-methyl-DL-tryptophan. The kinetic parameters were calculated by linear regression (Eadie-Hofstee plots) and the values were confirmed by non-linear regression.
We employed a similar experimental strategy to detect specifically the transport function of ATB^0,+ in the remaining seven cell lines. […] We also investigated the effect of α-methyl-DL-tryptophan on D-serine uptake in MCF7 cells.

mouse ATB^0,+ [1] = target: T2, mouse ATB^0,+ (Mus musculus, UniProt Q9JMA9); assay: Inhibition of ATB^0,+-mediated glycine uptake in HRPE cells expressing cloned mouse ATB^0,+; details: glycine 10 μM; inhibitor 1 mM; 30 min; NaCl; HRPE cells
T2 sequence (Q9JMA9 1-638): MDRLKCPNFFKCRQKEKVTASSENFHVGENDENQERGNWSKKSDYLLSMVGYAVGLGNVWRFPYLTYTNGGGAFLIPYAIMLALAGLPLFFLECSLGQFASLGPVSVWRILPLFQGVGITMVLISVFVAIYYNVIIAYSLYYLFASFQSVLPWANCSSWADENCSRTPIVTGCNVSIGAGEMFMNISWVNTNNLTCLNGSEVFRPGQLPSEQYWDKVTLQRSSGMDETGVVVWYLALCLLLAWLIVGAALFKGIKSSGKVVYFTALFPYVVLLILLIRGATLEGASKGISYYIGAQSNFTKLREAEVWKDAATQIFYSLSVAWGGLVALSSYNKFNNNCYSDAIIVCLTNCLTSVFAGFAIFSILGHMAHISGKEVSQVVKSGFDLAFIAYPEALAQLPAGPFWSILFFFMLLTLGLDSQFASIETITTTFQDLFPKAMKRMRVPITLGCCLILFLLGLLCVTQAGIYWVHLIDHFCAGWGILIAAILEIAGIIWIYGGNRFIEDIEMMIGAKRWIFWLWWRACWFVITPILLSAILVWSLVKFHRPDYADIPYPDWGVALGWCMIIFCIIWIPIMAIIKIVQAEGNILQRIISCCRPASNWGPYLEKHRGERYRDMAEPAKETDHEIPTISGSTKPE

mouse ATB^0,+ [2] = target: T2, mouse ATB^0,+; assay: Substrate-induced inward currents in X. laevis oocytes expressing mouse ATB^0,+ (two-microelectrode voltage clamp); details: NaCl, voltage clamp; for inward currents induced in ATB^0,+-expressing oocytes: 2.5 mM
Description: (§1) Capped cRNA from the cloned mouse or human ATB^0,+ cDNA was synthesized using the mMESSAGE mMACHTNE kit (Ambion, Austin, Tex., U.S.A.). Mature oocytes (stage IV or V) from X. laevis were injected with 50 ng of cRNA. Uninjected oocytes served as controls. The oocytes were used for electrophysiological studies 3-6 days after cRNA injection. Electrophysiological studies were performed by the two-microelectrode voltage-clamp method (Nakanishi et al., 2001, J. Physiol. 532, 297-304). Oocytes were superfused with an NaCl-containing buffer (100 mM NaCl, 2 mM KCl, 1 mM MgCl2, 1 mM CaCl2, 3 mM Hepes, 3 mM Mes and 3 mM Tris, pH 7.5), followed by the same buffer containing tryptophan derivatives. The membrane potential was clamped at −50 mV. The differences between the steady-state currents measured in the presence and absence of substrates were considered as the substrate-induced currents. In the analysis of the saturation kinetics of substrate-induced currents, the kinetic parameter K0.5 (i.e. substrate concentration necessary for induction of half-maximal current) was calculated by fitting the values of the substrate-induced currents to the Michaelis-Menten equation. The Na^+ and Cl^− activation kinetics of substrate-induced currents were analysed by measuring the substrate-specific currents in the presence of increasing concentrations of Na^+ (concentration of Cl^− kept constant at 100 mM) or in the presence of increasing concentrations of Cl^− (concentration of Na^+ kept constant at 100 mM). In these experiments, the composition of the superfusion buffer was modified to contain 2 mM potassium gluconate, 1 mM MgSO4 and 1 mM calcium gluconate in place of KCl, MgCl2 and CaCl2 respectively. The data from these experiments were analysed by the Hill equation to determine the Hill coefficient (h; number of Na^+ and Cl^− ions involved in the activation process). The kinetic parameters were determined by using the commercially available computer program Sigma Plot, version 6.0 (SPSS, Chicago, Ill., U.S.A.). Uninjected oocytes were used to determine the currents induced by tryptophan derivatives due to entry via transporters that may be constitutively expressed in the oocytes. At a concentration of 2.5 mM, the currents induced by these compounds were in the range of 0-3 nA in uninjected oocytes. These currents were less than 2% of the corresponding currents induced in ATB^0,+ cRNA-injected oocytes. Therefore the endogenous currents associated with the constitutively expressed transporters were not considered in the analysis of kinetic parameters of ATB^0,+ transport activity.
The above studies with the mammalian cell expression system have focused on the interaction of 1-methyltryptophan and other tryptophan derivatives with ATB^0,+ by examining the effects of these compounds on the transporter-mediated glycine uptake. These studies have shown convincingly that 1-methyltryptophan interacts with ATB^0,+, with the L-isomer having much higher affinity for the transporter than the D-isomer. However, these studies have not shown whether or not 1-methyltryptophan is actually a transportable substrate for ATB^0,+. It is possible that 1-methyltryptophan inhibits ATB^0,+-mediated glycine uptake simply by blocking the interaction of glycine with the substrate-binding site of the transporter, rather than by actually competing with glycine for the transport process. […] We wanted to know whether 1-methyltryptophan can actually be transported by ATB^0,+. For this, we used the X. laevis oocyte expression system. Since the transport process mediated by ATB^0,+ is electrogenic, exposure of ATB^0,+-expressing oocytes to transportable substrates will induce an inward current in an Na^+- and Cl^−-dependent manner. Exposure of the same oocytes to blockers will interfere with currents induced by transportable substrates, but will not induce currents by themselves. […]

human LAT1/4F2hc = human LAT1/4F2hc (Homo sapiens, UniProt Q01650); assay: Inhibition of LAT1 transport function: L-valine uptake in HRPE cells co-expressing human LAT1 and human 4F2hc; details: 1 mM; L-[14C]valine 0.75 μM; 5 min
Sequence of human LAT1/4F2hc (Q01650 whole entry): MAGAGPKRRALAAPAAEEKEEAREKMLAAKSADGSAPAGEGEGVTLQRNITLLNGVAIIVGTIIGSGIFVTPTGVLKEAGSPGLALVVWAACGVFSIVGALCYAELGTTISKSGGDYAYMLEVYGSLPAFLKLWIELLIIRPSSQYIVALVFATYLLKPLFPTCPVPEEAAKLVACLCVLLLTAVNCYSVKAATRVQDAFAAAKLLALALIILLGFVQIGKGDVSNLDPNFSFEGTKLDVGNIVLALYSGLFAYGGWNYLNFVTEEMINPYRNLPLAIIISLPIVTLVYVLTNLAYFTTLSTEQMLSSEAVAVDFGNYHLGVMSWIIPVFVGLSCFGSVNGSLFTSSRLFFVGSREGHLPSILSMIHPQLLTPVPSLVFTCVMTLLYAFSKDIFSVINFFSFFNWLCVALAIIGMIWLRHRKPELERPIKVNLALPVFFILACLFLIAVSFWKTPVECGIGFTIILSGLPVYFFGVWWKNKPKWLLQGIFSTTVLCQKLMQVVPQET
Sequence of human LAT1/4F2hc (P08195 102-630 partner): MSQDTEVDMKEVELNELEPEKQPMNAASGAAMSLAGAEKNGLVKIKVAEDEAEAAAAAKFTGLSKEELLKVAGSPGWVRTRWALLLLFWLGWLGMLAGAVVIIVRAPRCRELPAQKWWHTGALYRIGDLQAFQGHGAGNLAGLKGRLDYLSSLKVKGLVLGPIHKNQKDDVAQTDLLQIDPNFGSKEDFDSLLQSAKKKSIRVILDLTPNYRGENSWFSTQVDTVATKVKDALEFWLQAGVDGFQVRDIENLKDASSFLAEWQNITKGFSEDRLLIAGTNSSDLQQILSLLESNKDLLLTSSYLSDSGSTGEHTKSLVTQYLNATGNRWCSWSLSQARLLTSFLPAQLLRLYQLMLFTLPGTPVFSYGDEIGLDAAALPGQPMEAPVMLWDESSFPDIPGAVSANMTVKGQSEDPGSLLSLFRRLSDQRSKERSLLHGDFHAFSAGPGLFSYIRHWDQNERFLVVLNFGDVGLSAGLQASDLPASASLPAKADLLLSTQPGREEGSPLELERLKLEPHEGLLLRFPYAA

human ATB^0,+ = target: T3, human ATB^0,+ (Homo sapiens, UniProt Q9UN76); assay: Block of inward currents induced by amino acid mixture simulating plasma in X. laevis oocytes expressing human ATB^0,+; details: even at 1 mM; amino acid mixture simulating plasma
T3 construct: The human ATB^0,+ cDNA was cloned from an MCF7 cell (a human mammary epithelial cancer cell line) cDNA library; expressed in transfected cells; host or cells: Xenopus laevis oocytes injected with 50 ng capped cRNA
T3 sequence (Q9UN76 1-642): T1 sequence (Q9UN76 1-642)
Description: as §1
These studies with α-methyl-DL-tryptophan as a blocker of ATB^0,+ were carried out with L-tryptophan at sub-saturating concentrations. […] Therefore, using the Xenopus oocyte heterologous expression system, we monitored the transport activity of human ATB^0,+ in the presence of an amino acid mixture consisting of 18 different amino acids, each at its respective physiological concentration found in plasma (Glew et al., 2004, Clin. Chim. Acta 342, 179-185) (Table 1). Inward currents were detected under these conditions in oocytes expressing human ATB^0,+. […] We then monitored the ability of α-methyl-DL-tryptophan to block the inward currents induced by the same mixture of amino acids in oocytes expressing human ATB^0,+ (FIG. 4B). […]

- IC50 (ATB^0,+ in MCF7 cells): 250 to 500 µM
Compound: N=C(N)NCCC[C@H](N)C(=O)O [Arginine]

- Kt for D-serine uptake (ATB^0,+ in MCF7 cells; absence of the blocker): 517 ± 38 µM
- Vmax for D-serine uptake (ATB^0,+ in MCF7 cells; absence of the blocker): 32.4±1.5 nmol/mg of protein per 15 min
Compound: N[C@H](CO)C(=O)O [D-serine]

Compound: N[C@H](Cc1c[nH]c2ccccc12)C(=O)O [D-tryptophan]
- inhibition of ATB^0,+-specific glycine uptake (mouse ATB^0,+ [1]): inhibited
- Michaelis constant (K0.5) of substrate-induced currents (mouse ATB^0,+ [2]; saturation kinetics): 288 ± 48 µM

Compound: N[C@@H](Cc1c[nH]c2ccc(O)cc12)C(=O)O [5-hydroxy-L-tryptophan]
- inhibition of ATB^0,+-specific glycine uptake (mouse ATB^0,+ [1]): inhibited

Compound: COC(=O)[C@@H](N)Cc1c[nH]c2ccccc12 [L-tryptophan methyl ester]
- inhibition of ATB^0,+-specific glycine uptake (mouse ATB^0,+ [1]): inhibited

Compound: CC(=O)N[C@@H](Cc1c[nH]c2ccccc12)C(=O)O [N-acetyl-L-tryptophan]
- inhibition of ATB^0,+-specific glycine uptake (mouse ATB^0,+ [1]): not able to inhibit
- inward currents induced in ATB^0,+-expressing oocytes (mouse ATB^0,+ [2]): did not induce currents

Compound: Cc1ccc2[nH]cc(CC(N)C(=O)O)c2c1 (racemic) [5-methyl-DL-tryptophan]
- inhibition of ATB^0,+-specific glycine uptake (mouse ATB^0,+ [1]): inhibited

Compound: NCCc1c[nH]c2ccc(O)cc12 [5-hydroxytryptamine]
- inhibition of ATB^0,+-specific glycine uptake (mouse ATB^0,+ [1]): not able to inhibit
- inward currents induced in ATB^0,+-expressing oocytes (mouse ATB^0,+ [2]): did not induce currents

Compound: Cc1ccc2c(CC(N)C(=O)O)c[nH]c2c1 (racemic) [6-methyl-DL-tryptophan]
- inhibition of ATB^0,+-specific glycine uptake (mouse ATB^0,+ [1]): inhibited

Compound: N[C@@H](Cc1c[nH]c2ccccc12)C(=O)O [tryptophan]
- effect on cDNA-induced valine uptake (human LAT1/4F2hc): abolished completely

Compound: Cc1cccc2[nH]cc(CC(N)C(=O)O)c12 (racemic) [4-methyl-DL-tryptophan]
- inhibition of ATB^0,+-specific glycine uptake (mouse ATB^0,+ [1]): inhibited

- IC50 (ATB^0,+ in MCF7 cells): 250 to 500 µM
Compound: NCCCC[C@H](N)C(=O)O [lysine]

- inhibition at 1000 µM (human ATB^0,+): ≤ 40%
Compound: C[C@@](N)(Cc1c[nH]c2ccccc12)C(=O)O [α-methyl-D-tryptophan, α-Methyl-D-Tryptophan]

Source: patent US8436039B2, “Inhibitors of the ATB(0,+) transporter and uses thereof” (Georgia Health Sciences University Research Institute, Inc., priority 2008, dated 2013)
